Assay results taken from US10918713B2, “Epitopes from allergen proteins and methods and uses for immune response modulation” (LA JOLLA INSTITUTE FOR ALLERGY AND IMMUNOLOGY, priority 2012, dated 2021).
Values joined by “and” are separate entries in the source; they are usually repeats but may differ in a detail not shown here. Identical values can stand only once.

Assays:
[1] = system: PBMC from allergic donors; test: IFN-γ ELISPOT with extract-stimulated short-term lines; format: cell-based, human; conditions: positive donor/peptide response
Description: (§1) Spots were counted by computer-assisted image analysis (Zeiss, KS-ELISPOT reader, Munich, Germany).
(§2) Each assay was performed in triplicate. The level of statistical significance was determined with a Student's t-test using the mean of triplicate values of the response against relevant pools or individual peptides versus the response against the DMSO control.

[2] = system: PBMC from allergic donors; test: Dual ELISPOT, total IL-5 and IFN-γ response (SFC); format: cell-based, human; conditions: sum of IFNg and IL-5
Description: as §1, §2

Substance | Response (SFC/10^6) IFNg ([1]; each table line is one donor) | Response (SFC/10^6) Total ([2]; each table line is one donor) | Response (SFC/10^6) IFNg ([1]; one donor per table line) | Response (SFC/10^6) Total ([2]; one donor per table line)
3324.0100 (MLTLFILIITSTIKA) | 63 SFC/10^6 and 167 SFC/10^6 | 63 SFC/10^6 and 167 SFC/10^6 |  | 
3324.0103 (IAKVPPGPNITATYG) |  |  | 153 SFC/10^6 and 223 SFC/10^6 and 267 SFC/10^6 | 153 SFC/10^6 and 223 SFC/10^6 and 267 SFC/10^6
3324.0372 (PAKNIYSFNEIVALW) |  |  | 67 SFC/10^6 | 67 SFC/10^6
3324.0379 (TNFEIEASFGVEASE) |  |  | 1113 SFC/10^6 | 1113 SFC/10^6
3324.0380 (VILAINHSVFVKGDH) |  |  | 1410 SFC/10^6 | 1410 SFC/10^6
3324.0384 (VKAFKQVDVVISTVG) |  |  | 1007 SFC/10^6 | 1007 SFC/10^6
3324.0630 (LVATSAISLHMQEAG) |  |  | 83 SFC/10^6 | 83 SFC/10^6
3324.0633 (MLAVVAVVLASMVGG) |  |  | 227 SFC/10^6 | 227 SFC/10^6
3324.0639 (TVWAQSAAFPAFKPE) |  |  | 463 SFC/10^6 and 100 SFC/10^6 | 463 SFC/10^6 and 100 SFC/10^6
3324.0652 (LRTLGSTSADEVQRM) |  |  | 113 SFC/10^6 | 113 SFC/10^6
3324.0894 (NGKLHLSLIDPSTLS) |  |  | 460 SFC/10^6 | 460 SFC/10^6
3324.0914 (FAFGYFNGRILGVCP) |  |  | 133 SFC/10^6 | 133 SFC/10^6
3324.0918 (NAMDEIIKSTDAEPA) |  |  | 260 SFC/10^6 | 260 SFC/10^6
3324.0922 (TGLPLMYKFGDNLVV) |  |  | 247 SFC/10^6 | 247 SFC/10^6
3324.1133 (MASSSSVLLVVALFA) |  |  | 53 SFC/10^6 | 53 SFC/10^6
3324.1145 (LRKYGIAAENVIDVK) | 50 SFC/10^6 | 50 SFC/10^6 |  | 
